Active and inactive are the calls of the source. The rule behind the calls is not given here.
Columns and labels:
MCF7 = assay: Cytotoxicity against human MCF7 cells; format: functional, cell-based
THP-1 [1] = assay: Antiinflammatory activity against human THP1 cells assessed as inhibition of LPS-induced MMP9 expression pretreated 2 hrs before LPS challenge measured after 24 hrs by SDS-PAGE; format: functional, cell-based
DLD2 = assay: Cytotoxicity against human DLD2 cells; format: functional, cell-based
THP-1 [2] = assay: Antiinflammatory activity against human THP1 cells assessed as inhibition of LPS-induced TNFalpha release at 6.5 to 25.9 uM pretreated 2 hrs before LPS challenge measured after 24 hrs by ELISA; format: functional, cell-based
Ca-Ski = assay: Cytotoxicity against human CaSki cells by; format: functional, cell-based
A549 = assay: Cytotoxicity against human A549 cells; format: functional, cell-based
THP-1 [3] = assay: Cytotoxicity against LPS-stimulated human THP1 cells assessed as cell viability at 25.9 uM pretreated 2 hrs before LPS-challenge measured after 24 hrs by MTS assay; format: cell-based; conditions: thp-1, 24 h
THP-1 [4] = assay: Antiinflammatory activity against human THP1 cells assessed as inhibition of LPS-induced TNFalpha release at 6.7 to 26.9 uM pretreated 2 hrs before LPS challenge measured after 24 hrs by ELISA; format: functional, cell-based
THP-1 [5] = assay: Cytotoxicity against LPS-stimulated human THP1 cells assessed as cell viability at 26.9 uM pretreated 2 hrs before LPS-challenge measured after 24 hrs by MTS assay; format: cell-based; conditions: thp-1, 24 h
THP-1 [6] = assay: Cytotoxicity against LPS-stimulated human THP1 cells assessed as cell viability at 29.0 uM pretreated 2 hrs before LPS-challenge measured after 24 hrs by MTS assay; format: cell-based; conditions: thp-1, 24 h
THP-1 [7] = assay: Antiinflammatory activity against human THP1 cells assessed as inhibition of LPS-induced TNFalpha release at 7.3 to 29.0 uM pretreated 2 hrs before LPS challenge measured after 24 hrs by ELISA; format: functional, cell-based
THP-1 [8] = assay: Antiinflammatory activity against human THP1 cells assessed as inhibition of LPS-induced TNFalpha release at 7.3 to 29.4 uM pretreated 2 hrs before LPS challenge measured after 24 hrs by ELISA; format: functional, cell-based
THP-1 [9] = assay: Cytotoxicity against LPS-stimulated human THP1 cells assessed as cell viability at 29.4 uM pretreated 2 hrs before LPS-challenge measured after 24 hrs by MTS assay; format: cell-based; conditions: thp-1, 24 h

For `C/C=C(\C)C(CCC(C)CCCC(C)CCCC(C)C)O[C@H]1[C@H](O)[C@@H](O)[C@H](Oc2cc(O)c3c(=O)c(O)c(-c4ccc(OC)c(OC)c4)oc3c2)O[C@@H]1CO` (stereo partly drawn), which Activity (MCF7) is on record?
The Activity was “Not toxic”.

And the Activity (THP-1 [1])?
Its Activity is “Dose-dependent effect”.

And the Activity (DLD2)?
The Activity was “Not toxic”.

And the Activity (THP-1 [2])?
The Activity was “Active”.

And the Activity (Ca-Ski)?
Its Activity is “Not toxic”.

And the Activity (A549)?
Its Activity is “Not toxic”.

What about the Activity (THP-1 [3]) of the same molecule?
The Activity was “Non-toxic”.

For `CCC(C)C(CCC(C)CCCC(C)CCCC(C)C)O[C@H]1[C@H](O)[C@@H](O)[C@H](Oc2c(-c3ccc(OC)cc3)oc3cc(O)cc(O)c3c2=O)O[C@@H]1CO` (stereo partly drawn), which Activity (THP-1 [4]) is on record?
The Activity was “Active”.

And the Activity (THP-1 [5])?
Its Activity is “Non-toxic”.

And the Activity (MCF7)?
Its Activity is “Not toxic”.

What about the Activity (THP-1 [1]) of the same molecule?
The Activity was “Dose-dependent effect”.

What about the Activity (DLD2) of the same molecule?
Its Activity is “Not toxic”.

What about the Activity (Ca-Ski) of the same molecule?
The Activity was “Not toxic”.

And the Activity (A549)?
The Activity was “Not toxic”.

Which results are given for `COc1ccc([C@H]2CC(=O)c3ccc(O[C@@H]4O[C@H](COC(=O)CC(C)CCCC(CO)CCCC(C)C)[C@@H](O)[C@H](O)[C@H]4O)cc3O2)cc1OC` (stereo partly drawn)?
Activity (MCF7): Not toxic; Activity (THP-1 [6]): Non-toxic; Activity (THP-1 [1]): Dose-dependent effect; Activity (DLD2): Not toxic; Activity (Ca-Ski): Not toxic; Activity (A549): Not toxic; Activity (THP-1 [7]): Active

What does the source list for `C=C(CCC=C(C)C)CC/C=C(\C)CC(=O)OC[C@H]1O[C@@H](Oc2ccc3c(c2)O[C@@H](c2ccc(OC)c(OC)c2)CC3=O)[C@H](O)[C@@H](O)[C@@H]1O`?
Activity (MCF7): Not toxic; Activity (THP-1 [1]): Dose-dependent effect; Activity (DLD2): Not toxic; Activity (Ca-Ski): Not toxic; Activity (A549): Not toxic; Activity (THP-1 [8]): Active; Activity (THP-1 [9]): Non-toxic

Source: ChEMBL document CHEMBL1151844, “Flavonoid glucosides from the hairy roots of Catharanthus roseus” (J Nat Prod, 2009)
